Data as given in patent US20030207924A1, “Compounds that modulate PPAR activity and methods of preparation” (priority 2002, published 2003).
Where two headings read alike, the source gives them in different places.

Key:
hPPARβ chimeric receptor = molecular target: T1, hPPARβ chimeric receptor (Homo sapiens, UniProt Q03181); test: Transient transfection assay in HepG2 cells, Gal4-hPPARβ chimeric receptor, luciferase reporter (Test A); format: cell-based; conditions: for EC50-β (Hep G2-hBeta EC50): HepG2 cells, hPPARβ chimeric receptor, luciferase reporter, 24 hours
T1 construct: "expression plasmids encoding hPPARα, hPPARβ or mPPARγ chimeric receptors"
T1 sequence (Q03181 171-441 limits assumed): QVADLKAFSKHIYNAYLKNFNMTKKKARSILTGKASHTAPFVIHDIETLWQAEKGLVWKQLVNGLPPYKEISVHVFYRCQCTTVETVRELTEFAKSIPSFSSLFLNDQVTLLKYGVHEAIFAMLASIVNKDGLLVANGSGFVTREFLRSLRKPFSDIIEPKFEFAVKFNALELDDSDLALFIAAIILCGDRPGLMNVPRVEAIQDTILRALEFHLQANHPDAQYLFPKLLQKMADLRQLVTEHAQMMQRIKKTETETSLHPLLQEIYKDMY
Method: (§1) 1. Test A. Transient Transfections Assay Using the HepG2 Hepatoma Cell Line.
(§2) HepG2 cells were transiently transfected with an expression plasmids encoding hPPARα, hPPARβ or mPPARγ chimeric receptors and a reporter containing the yeast upstream activating sequence (UAS) upstream of the viral E1B promoter controlling a luciferase reporter gene. In addition, the plasmid pRSVβ-gal was used to control for transfection efficiency. HepG2 cells were grown in DMEM supplemented with 10% FBS and […] non-essential amino acid. On the first day, cells were split into 100 mm dishes at 2.5×10^6/dish and incubated overnight at 37° C./5% CO2. On the second day the cells were transiently transfected with plasmid DNA encoding a chimeric receptor, the luciferase reporter gene; and β-gal. For each 100 mm dish, 15 μg of lucifease reporter (PG5E1b) DNA, 15 μg of Gal4-PPAR chimeric receptor DNA, and 1.5 μg of β-gal plasmid DNA were mixed with 1.4 ml of opti-MEM in the tube. 28 μl of LipoFectamine-2000 reagent was added to 1.4 ml of opti-MEM in the tube, and incubate for 5 min at RT. The diluted Lipofectamine-2000 reagent was combined with the DNA mixture, and incubate for 20 min at RT. After fresh medium was added to each 100 mm dish of cells, 2.8 ml of Lipofectamine2000-DNA mixture was added dropwise to the 100 mm dish containing 14 ml of medium, and incubate 37° C. overnight. On day three cells were trypsinized off the 100 mm dishes and re-plated on 96 well plates. Cells were plated at 2.5×10^4 cells per well in 150 μl of media and 50 μl of compound diluted by media was added. The test compounds added were in the range from 50 μM to 50 pM. After addition of compounds, the plates were incubated at 37° C. for 24 hours. Subsequently cells were washed with once with 100 μl of PBS, lysed, and processed for measuring luciferase and β-gal activity using Dual-Light luciferase kit from Tropix®, according to the manufacturer's recommendations, on an EG&G Bethold MicroLumat LB96P luminometer. EC50 values were obtained using the GraphPad Prism™ program.

hPPARα chimeric receptor = molecular target: T2, hPPARα chimeric receptor (Homo sapiens, UniProt Q07869); test: Transient transfection assay in HepG2 cells, Gal4-hPPARα chimeric receptor, luciferase reporter (Test A); format: cell-based
T2 construct: "expression plasmids encoding hPPARα, hPPARβ or mPPARγ chimeric receptors"
T2 sequence (Q07869 200-468 limits assumed): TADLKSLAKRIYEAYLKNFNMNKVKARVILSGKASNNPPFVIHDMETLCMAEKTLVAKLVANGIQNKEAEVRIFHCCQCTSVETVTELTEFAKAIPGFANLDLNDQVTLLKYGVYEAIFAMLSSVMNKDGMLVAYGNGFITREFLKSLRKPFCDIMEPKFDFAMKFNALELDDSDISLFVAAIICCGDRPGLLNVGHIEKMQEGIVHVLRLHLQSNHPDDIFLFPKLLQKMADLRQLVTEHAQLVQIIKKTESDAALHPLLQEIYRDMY
Method: as §1
as §2, with “program. […] Accordingly, the compounds of the present invention should find considerable therapeutic applications for hypercholesterolemia and hyperlipidemia.” for “program.”

[1] = HepG2 cells, hPPARα chimeric receptor, luciferase reporter, 24 hours, read-out: EC50-α (Hep G2-hAlpha EC50)

SMILES | EC50 (hPPARβ chimeric receptor) [µM] | EC50 (hPPARα chimeric receptor; [1]) [µM] | EC50 (hPPARα chimeric receptor) [µM] | EC50-β (Hep G2-hBeta EC50) (hPPARβ chimeric receptor) [µM]
Cc1cc(SCc2sc(-c3ccc(C(F)(F)F)cc3)nc2C)c(C(C)C)cc1OCC(=O)O [Example 3, {5-Isopropyl-2-methyl-4-[4-methyl-2-(4-trifluoromethyl-phenyl)-thiazol-5-ylmethylsulfanyl]-phenoxy}-acetic acid] | 1.28 | 0.538 |  | 
Cc1nc(-c2ccc(C(F)(F)F)cc2)sc1CSc1ccc(C(C)(C)CC(=O)O)cc1 [Example 18, 3-Methyl-3-{4-[4-methyl-2-(4-trifluoromethyl-phenyl)-thiazol-5-ylmethylsulfanyl]-phenyl}-butyric acid] | 0.803 |  |  | 
COCc1cc(OCC(=O)O)c(C)cc1SCc1sc(-c2ccc(C(F)(F)F)cc2)nc1C [Example 32, 2-[5-(methoxymethyl)-2-methyl-4-({4-methyl-2-[4-(trifluoromethyl)phenyl](1,3-thiazol-5-yl)}methylthio)phenoxy]acetic acid] | 0.649 |  | 0.625 | 
COc1cc(OC)c(SCc2sc(-c3ccc(C(F)(F)F)cc3)nc2C)cc1CCC(=O)O [Example 19, 3-{2,4-Dimethoxy-5-[4-methyl-2-(4-trifluoromethyl-phenyl)-thiazol-5-ylmethylsulfanyl]-phenyl}-propionic acid] | 1.12 | 1.54 |  | 
COc1cc(OC)c(SCc2sc(-c3ccc(C(F)(F)F)cc3)nc2C)cc1CC(=O)O [Example 21, {2,4-Dimethoxy-5-[4-methyl-2-(4-trifluoromethyl-phenyl)-thiazol-5-ylmethylsulfanyl]}-acetic acid] | 1.25 | 0.442 |  | 
COc1cc(SCc2sc(-c3ccc(C(F)(F)F)cc3)nc2C)c(C)cc1OCC(=O)O [Example 6, {2-Methoxy-5-methyl-4-[4-methyl-2-(4-trifluoromethyl-phenyl)-thiazol-5-ylmethylsulfanyl]-phenoxy}-acetic acid] | 1.24 | 1.39 |  | 
CC(=O)Nc1cc(OCC(=O)O)c(C)cc1SCc1sc(-c2ccc(C(F)(F)F)cc2)nc1C [Example 25, 2-[5-(acetylamino)-2-methyl-4-({4-methyl-2-[4-(trifluoromethyl)phenyl](1,3-thiazol-5-yl)}methylthio)phenoxy]acetic acid] |  |  |  | 2000
Cc1nc(-c2ccc(C(F)(F)F)cc2)sc1CSc1ccc(C2(C(=O)O)CCCC2)cc1 [Example 14, 1-{4-[4-Methyl-2-(4-trifluoromethyl-phenyl)-thiazol-5-ylmethylsulfanyl]-phenyl}-cyclopentanecarboxylic acid] | 6.74 | 0.992 |  | 
Cc1cc(OCC(=O)O)c(C(C)C)cc1SCc1sc(-c2ccc(C(F)(F)F)cc2)nc1C [Example 9, {2-Isopropyl-5-methyl-4-[4-methyl-2-(4-trifluoromethyl-phenyl)-thiazol-5-ylmethylsulfanyl]-phenoxy}-acetic acid] | 0.891 | 5.75 |  | 
COc1cc(CN2CCCC2C(=O)O)ccc1SCc1sc(-c2ccc(C(F)(F)F)cc2)nc1C (stereo not drawn) [Example 29] |  |  |  | 2000
Cc1nc(-c2ccc(C(F)(F)F)cc2)sc1CSc1ccc(C2CCC(CC(=O)O)CC2)cc1 (stereo not drawn) [Example 33, (4-{4-[4-Methyl-2-(4-trifluoromethyl-phenyl)-thiazol-5-ylmethylsulfanyl]-phenyl}-cyclohexyl)-acetic acid] |  |  |  | 2000

Further lines, with some results ahead:

EC50 (hPPARβ chimeric receptor) [µM] | EC50 (hPPARα chimeric receptor; [1]) [µM] | EC50 (hPPARα chimeric receptor) [µM] | SMILES | EC50-β (Hep G2-hBeta EC50) (hPPARβ chimeric receptor) [µM]
0.0199 | 0.0055 |  | COc1cc(C(C)(C)C(=O)O)ccc1SCc1sc(-c2ccc(C(F)(F)F)cc2)nc1C [Example 17, 2-{3-Methoxy-4-[4-methyl-2-(4-trifluoromethyl-phenyl)-thiazol-5-ylmethylsulfanyl]-phenyl}-2-methyl-propionic acid] | 
0.0234 | 0.161 |  | Cc1cc(SCc2sc(-c3ccc(C(F)(F)F)cc3)nc2C)cc(C)c1OCC(=O)O [Example 4, {2,6-Dimethyl-4-[4-methyl-2-(4-trifluoromethyl-phenyl)-thiazol-5-ylmethylsulfanyl]-phenoxy}-acetic acid] | 
0.0144 | 0.042 |  | Cc1cc(SCc2sc(-c3ccc(C(F)(F)F)cc3)nc2C)c(C)cc1OCC(=O)O [Example 1, {2,5-Dimethyl-4-[4-methyl-2-(4-trifluoromethyl-phenyl)-thiazol-5-ylmethylsulfanyl]-phenoxy}-acetic acid] | 
0.361 | 1.23 |  | CCc1cc(OCC(=O)O)c(C)cc1SCc1sc(-c2ccc(C(F)(F)F)cc2)nc1C [Example 2, {5-Ethyl-2-methyl-4-[4-methyl-2-(4-trifluoromethyl-phenyl)-thiazol-5-ylmethylsulfanyl]-phenoxy}-acetic acid] | 
0.0476 | 1.1 |  | Cc1nc(-c2ccc(C(F)(F)F)cc2)sc1CSc1ccc(C2(C(=O)O)CC2)cc1 [Example 13, 1-{4-[4-Methyl-2-(4-trifluoromethyl-phenyl)-thiazol-5-ylmethylsulfanyl]-phenyl}-cyclopropanecarboxylic acid] | 
0.105 | 2.05 |  | Cc1cc(SCc2sc(-c3ccc(C(F)(F)F)cc3)nc2C)c(Cl)cc1OCC(=O)O [Example 31, {5-Chloro-2-methyl-4-[4-methyl-2-(4-trifluoromethyl-phenyl)-thiazol-5-ylmethylsulfanyl]-phenoxy}-acetic acid] | 
0.0488 | 0.507 |  | Cc1nc(-c2ccc(C(F)(F)F)cc2)sc1CSc1ccc(C(C)(C)C(=O)O)cc1 [Example 11, 2-Methyl-2-{4-[4-methyl-2-(4-trifluoromethyl-phenyl)-thiazol-5-ylmethylsulfanyl]-phenyl}-propionic acid] | 
0.0349 | 0.146 |  | COc1cc(SCc2sc(-c3ccc(C(F)(F)F)cc3)nc2C)c(OC)cc1CCC(=O)O [Example 20, 3-{2,5-Dimethoxy-4-[4-methyl-2-(4-trifluoromethyl-phenyl)-thiazol-5-ylmethylsulfanyl]-phenyl}-propionic acid] | 
0.473 | 1.34 |  | Cc1cc(OCC(=O)O)cc(C)c1SCc1sc(-c2ccc(C(F)(F)F)cc2)nc1C [Example 7, {3,5-Dimethyl-4-[4-methyl-2-(4-trifluoromethyl-phenyl)-thiazol-5-ylmethylsulfanyl]-phenoxy}-acetic acid] | 
